According to patent publication US20050214385A1, “Chromium/biotin treatment of dyslipidemia and diet-induced post prandial hyperglycemia” (priority 2001, published 2005):
Values joined by “and” are separate entries in the source; they are usually repeats but may differ in a detail not shown here. Equal values may be shown once. Read-outs that look alike come from different tables or passages of the source.

Experiments:
[1] = rats, oral CrCl3 with NSAID; cited from earlier work
[2] = tested on: streptozotocin-diabetic rats; Otsuka Long-Evans Tokushima Fatty rats; details: high-dose oral or parenteral, cited from earlier work
[3] = tested on: glycogen synthetase (GS) mRNA; assay: Glycogen synthetase (GS) mRNA expression in HSMC; format: cell-based, human; details: CrPic 10 ng/ml, biotin 10 pm, FIG. 4B
Method: To evaluate the cellular mechanism by […] biotin enhance glycogen synthesis, glycogen synthetase (“GS”) mRNA and glycogen synthesis were assessed. HSMC was incubated with CrPic at 10 ng/ml, biotin at 10 pm, and both CrPic and biotin. […] When evaluating GS mRNA levels, chromium increased gene expression of GS by 26%, biotin by 15%, and the combination by 33%. […] RNA Preparation: Total RNA from the skeletal muscle biopsy was isolated using guanium […], phenol-chloroform extraction, and alcohol precipitation. RNA sample was quantified by spectrophotometer. The absorption ratio (260:280 nm) was between 1.8 to 2.0 for all preparations and the integrity of the RNA was verified on agarose gel colored with ethidium bromide. For RT-PCR, fresh isolated total RNA was used. GS mRNA Level Analysis: GS mRNA levels were analyzed using one-step RT-PCR kits (Clontech Laboratories, Inc., Palo Alto, Calif.). GS first-strand CDNA synthesis was performed from 1 μh of total RNA with 1×[…] plus enzyme mix in 40 mM Tricine, 20 mM Kcl, 3 mM MgCl2, 3.75 ug/ml BSA, 0.2 mM deoxynucleoside triphosphates, 400 pmol of oligo(dt) primer, and 200 pm GS primers (Sense [NT], antisense [NT]) in a final volume of 50 μl. The reaction mixtures were subjected to incubations for 60 min. at 50° C. in the Eppendorf Master gradient cycler (Westbury, N.Y.). […] The band densities were evaluated (Alpha Imager 2000, San Leandro, Calif.). […]

[4] = tested on: Type I and type 2 diabetics; details: cited from earlier work
JCR rat [5] = assay: Intraperitoneal glucose tolerance test / glucose disposal in JCR rats; format: in vivo; details: for Glucose Disposal: individual rat, 12 weeks daily treatment via water; for Glucose Disposal, value per treatment group: mean per treatment, 12 weeks
Method: In order to test the effects of chromium and biotin, alone and in combination, on insulin sensitivity, a rodent model of “Syndrome X” was employed. Specifically, the JCR rat was utilized as it is a well-established model of obesity and insulin resistance.
After a baseline phase where accurate weights, body composition, and food intake were assessed, the animals were randomized to either control, CrPic alone, biotin alone, or CrPic/Biotin (See FIG. 5). Animals were weighed weekly and nutrients were given via daily water feeding at a specified dose/kg body weight. A 12-week period of daily treatment of animals was accomplished.
At specified time points during the study, glucose and insulin assessments were made. Specific assessments of carbohydrate metabolism were determined using an intraperitoneal glucose tolerance test and an insulin tolerance test. Animals were studied at 6 and 12 weeks with randomization. The specific metabolic testing was as follows:
Following baseline glucose and insulin measurements, 1.5 mg D50W per gram of body weight were given intraperitoneally. Tailsticks were initiated at 30, 60, 90, and 120 minutes following administration of glucose. The areas under curve for insulin and glucose were assessed. Eight animals in each group at 12 weeks were studied. Table 1 details the amount of glucose disposal for animals treated with CrPic and/or biotin at various dosages. Note, “L” represents the lean control; “O-contr” are the obese control rats; “LB” connotes low biotin treatments; “HB” represents high biotin treatments; “LC” and “HC” represent low and high doses of chromium, respectively. FIG. 6 is a graphic representation of the results of the IPGTT studies. […]

[6] = oral biotin intakes of up to 200 mg daily; cited from earlier work
JCR rat [7] = assay: Lipid levels in JCR rats (chromium picolinate + biotin animal study); format: in vivo; set-up: Cholesterol / HDL-ch: unit not given here
Method: In order to test the effects of chromium and biotin, alone and in combination, on insulin sensitivity, a rodent model of “Syndrome X” was employed. Specifically, the JCR rat was utilized as it is a well-established model of obesity and insulin resistance. […] After a baseline phase where accurate weights, body composition, and food intake were assessed, the animals were randomized to either control, CrPic alone, biotin alone, or CrPic/Biotin (See FIG. 5). Animals were weighed weekly and nutrients were given via daily water feeding at a specified dose/kg body weight. A 12-week period of daily treatment of animals was accomplished. […] Specifically, CrPic versus control solutions were given in hyperinsulinemic, insulin-resistant, obese JCR rats. The study was initiated on animals at approximately 4 months of age, and animals were treated specifically for three months. […] 9). […] The improvement in insulin sensitivity was associated with a reduction in total. cholesterol levels compared to lean animals (See, e.g., Table 2, and FIGS. 10 & 11). The effect of the combination of chromium and biotin on lipid levels in the animal study is detailed in Table 2. Specifically, the effect of chromium and biotin on cholesterol levels, high density lipid cholesterol (HDL-ch) levels, and triglyceride levels are recorded in Table 2.

[8] = tested on: human skeletal muscle culture (HSMC); assay: Glucose uptake in human skeletal muscle culture; format: cell-based; details: FIG. 2
diabetic KK mice = details: high-dose oral or parenteral; cited from earlier work
JCR:LA-corpulent rat = details: obese, hyperinsulinemic, insulin resistant rodent model; cited from earlier work
[9] = tested on: diabetic and obese pre-diabetic subjects; details: cited from earlier work
JCR rat [10] = assay: Insulin tolerance test in obese JCR rats; format: in vivo; details: FIG. 9
Method: (§1) At specified time points during the study, glucose and insulin assessments were made. Specific assessments of carbohydrate metabolism were determined using an intraperitoneal glucose tolerance test and an insulin tolerance test. Animals were studied at 6 and 12 weeks with randomization. The specific metabolic testing was as follows: Following baseline glucose assessment, insulin (5 units per kg body weight) was given intravenously. Repeat glucose assessments occurred at 5, 15, and 30 minute intervals following insulin administration. The rate of glucose disappearance was measured. Again, eight animals in each group at 12 weeks were studied. […] Specifically, CrPic versus control solutions were given in hyperinsulinemic, insulin-resistant, obese JCR rats. The study was initiated on animals at approximately 4 months of age, and animals were treated specifically for three months. […] 9). […] The improvement in insulin sensitivity was associated with a reduction in total. cholesterol levels compared to lean animals (See, e.g., Table 2, and FIGS. 10 & 11). The effect of the combination of chromium and biotin on lipid levels in the animal study is detailed in Table 2. Specifically, the effect of chromium and biotin on cholesterol levels, high density lipid cholesterol (HDL-ch) levels, and triglyceride levels are recorded in Table 2.

JCR rat [11] = assay: Fasting plasma insulin in obese JCR rats; format: in vivo; details: treated three months, end of study, FIG. 7
Method: as §1, with “randomization.” for “randomization. The specific metabolic testing was as follows: Following baseline glucose assessment, insulin (5 units per kg body weight) was given intravenously. Repeat glucose assessments occurred at 5, 15, and 30 minute intervals following insulin administration. The rate of glucose disappearance was measured. Again, eight animals in each group at 12 weeks were studied.”

[12] = Month 0, listed as High Chromium
[13] = Month 0, listed as Low Chromium
[14] = Month 1, listed as High Chromium
[15] = Month 1, listed as Low Chromium
[16] = Month 2, listed as High Chromium
[17] = Month 2, listed as Low Chromium
[18] = Month 3, listed as High Chromium
[19] = Month 3, listed as Low Chromium

Compound: CC(=O)Oc1ccccc1C(=O)O [aspirin]
- Chromium absorption [1]: facilitated

Compound: O=C(O)CCCC[C@@H]1SC[C@@H]2NC(=O)N[C@@H]21 [biotin]
- oral glucose tolerance ([2]; pre-diabetic Otsuka Long-Evans Tokushima Fatty rats): improve oral glucose tolerance
- oral glucose tolerance ([2]; rats made diabetic with streptozotocin): improve oral glucose tolerance
- increase of gene expression of GS (GS mRNA levels) [3]: 15%
- fasting plasma glucose levels ([4]; Type I diabetics, insulin temporarily discontinued, 16 mg daily oral): lowered fasting plasma glucose levels
- pancreatic beta cell function ([4]; poorly-controlled type 2 diabetics, 3 mg three times per day): improved
- Glucose Disposal (JCR rat [5]; listed as HB): 1.92 mg/dL/min and 2.329 mg/dL/min and 1.879 mg/dL/min and 1.772 mg/dL/min and 1.993 mg/dL/min
- Glucose Disposal (JCR rat [5]; listed as LB): 2.21 mg/dL/min and 2.392 mg/dL/min and 1.876 mg/dL/min and 1.768 mg/dL/min and 1.875 mg/dL/min
- Glucose Disposal, value per treatment group (JCR rat [5]): 2.0615 mg/dL/min
- side effects or toxicities [6]: no side effects or toxicities
- Cholesterol (JCR rat [7]; Month 0, listed as High Biotin): 106
- HDL-ch (JCR rat [7]; Month 0, listed as High Biotin): 43.6
- Triglyceride (JCR rat [7]; Month 0, listed as High Biotin): 289 mg/dL
- Cholesterol (JCR rat [7]; Month 0, listed as Low Biotin): 111
- HDL-ch (JCR rat [7]; Month 0, listed as Low Biotin): 47.8
- Triglyceride (JCR rat [7]; Month 0, listed as Low Biotin): 317 mg/dL
- Cholesterol (JCR rat [7]; Month 1, listed as High Biotin): 111
- HDL-ch (JCR rat [7]; Month 1, listed as High Biotin): 42
- Triglyceride (JCR rat [7]; Month 1, listed as High Biotin): 292 mg/dL
- Cholesterol (JCR rat [7]; Month 1, listed as Low Biotin): 117
- HDL-ch (JCR rat [7]; Month 1, listed as Low Biotin): 46.5
- Triglyceride (JCR rat [7]; Month 1, listed as Low Biotin): 331 mg/dL
- Cholesterol (JCR rat [7]; Month 2, listed as High Biotin): 130
- HDL-ch (JCR rat [7]; Month 2, listed as High Biotin): 46.8
- Triglyceride (JCR rat [7]; Month 2, listed as High Biotin): 294 mg/dL
- Cholesterol (JCR rat [7]; Month 2, listed as Low Biotin): 122
- HDL-ch (JCR rat [7]; Month 2, listed as Low Biotin): 45.8
- Triglyceride (JCR rat [7]; Month 2, listed as Low Biotin): 272 mg/dL
- Cholesterol (JCR rat [7]; Month 3, listed as High Biotin): 144
- HDL-ch (JCR rat [7]; Month 3, listed as High Biotin): 46.9
- Triglyceride (JCR rat [7]; Month 3, listed as High Biotin): 301 mg/dL
- Cholesterol (JCR rat [7]; Month 3, listed as Low Biotin): 118
- HDL-ch (JCR rat [7]; Month 3, listed as Low Biotin): 47.3
- Triglyceride (JCR rat [7]; Month 3, listed as Low Biotin): 229 mg/dL
- glucose uptake [8]: chromium alone enhances glucose uptake in contrast to biotin alone
- oral glucose tolerance (diabetic KK mice): improve oral glucose tolerance

Compound: chromium picolinate [CrPic]
- insulin sensitivity (JCR:LA-corpulent rat): very robust effect on improving
- lipid profiles (JCR:LA-corpulent rat): very robust effect on improving
- increase of gene expression of GS (GS mRNA levels) [3]: 26%
- glucose levels ([9]; Chinese diabetics): significantly lowered
- insulin levels ([9]; Chinese diabetics): significantly lowered
- insulin sensitivity ([9]; obese, pre-diabetic subjects, 1000 μg per day): enhance insulin sensitivity
- Insulin sensitivity, insulin tolerance test (JCR rat [10]): significantly improved
- Glucose Disposal (JCR rat [5]; listed as HC): 2.928 mg/dL/min and 3.25 mg/dL/min and 3.224 mg/dL/min and 3.011 mg/dL/min and 2.821 mg/dL/min
- Glucose Disposal (JCR rat [5]; listed as LC): 2.334 mg/dL/min and 2.109 mg/dL/min and 2.066 mg/dL/min
- Glucose Disposal, value per treatment group (JCR rat [5]): 2.928 mg/dL/min
- glucose response to intraperitoneal glucose tolerance test (JCR rat [5]; obese JCR rats, FIG. 8A): significantly improved glucose response
- insulin response to intraperitoneal glucose tolerance test (JCR rat [5]; obese rat, FIG. 8B): significantly lowered insulin response
- fasting plasma insulin (JCR rat [11]): significantly lower fasting plasma insulin
- Cholesterol (JCR rat [7]; [12]): 110
- HDL-ch (JCR rat [7]; [12]): 43.1
- Triglyceride (JCR rat [7]; [12]): 302 mg/dL
- Cholesterol (JCR rat [7]; [13]): 109
- HDL-ch (JCR rat [7]; [13]): 45.9
- Triglyceride (JCR rat [7]; [13]): 319 mg/dL
- Cholesterol (JCR rat [7]; [14]): 112
- HDL-ch (JCR rat [7]; [14]): 43.2
- Triglyceride (JCR rat [7]; [14]): 283 mg/dL
- Cholesterol (JCR rat [7]; [15]): 93
- HDL-ch (JCR rat [7]; [15]): 38.6
- Triglyceride (JCR rat [7]; [15]): 267 mg/dL
- Cholesterol (JCR rat [7]; [16]): 120
- HDL-ch (JCR rat [7]; [16]): 51.5
- Triglyceride (JCR rat [7]; [16]): 221 mg/dL
- Cholesterol (JCR rat [7]; [17]): 130
- HDL-ch (JCR rat [7]; [17]): 43.4
- Triglyceride (JCR rat [7]; [17]): 256 mg/dL
- Cholesterol (JCR rat [7]; [18]): 122
- HDL-ch (JCR rat [7]; [18]): 48.1
- Triglyceride (JCR rat [7]; [18]): 174 mg/dL
- Cholesterol (JCR rat [7]; [19]): 137
- HDL-ch (JCR rat [7]; [19]): 45.9
- Triglyceride (JCR rat [7]; [19]): 242 mg/dL
- total cholesterol levels (JCR rat [7]; obese JCR rats, FIGS. 10 & 11): reduction
- glucose uptake [8]: enhances glucose uptake
